{
  "source": "patent US7530196B2",
  "about": "“Method for improving plant growth by application of a mixture of sulfur and complexing agent” (BASF Aktiengesellschaft, priority 2001, dated 2009)",
  "key": {"Chinese leaves [1]": {"test_system": "Chinese leaves", "test": "Container experiment with Chinese leaves: mineral contents in leaves", "type": "in vivo, Chinese leaves \"Kasumi\"", "settings": "plant batch 1; for Iron content in ppm / Manganese content in ppm: Table 3", "procedure": "(§1) Experimental Set-Up: Container Experiment With Chinese Leaves • 1. without addition • 2. 8 mg S/pot/week • 3. 80 mg S/pot/week • 4. 2 mg sodium lignosulfonate/pot/week • 5. 20 mg sodium lignosulfonate/pot/week • 6. 10 mg mixture of 80% by weight sulfur and 20% by weight sodium lignosulfonate/pot/week • 7. 100 mg mixture of 80% by weight sulfur and 20% by weight sodium lignosulfonate/pot/week Method: Plant Species: Chinese leaves “Kasumi”, sown into P-soil in multi-cell trays, age at pricking out time into experimental containers: approx. 14 days; the same containers are planted twice. Soil from Ruchheim, loam, pH 7.4, mixed with quartz sand (for retaining the structural stability during the container experiment). PE pots/15, approx. 1 l substrate (1.5 kg). Greenhouse, 25° C., supplementary lighting suitable for assimilation. Plant food 15+10+15+2 with trace elements without chelating agent (LAB 2411D; 0.5 g/container/week). Using a syringe and cannula into the soil at a depth of approx. 1 cm to simulate trickle irrigation conditions. The additions were applied in one application weekly via the cannula. 10 mg of mixture M according to the invention/container/week correspond to approx. 5 kg/ha."}, "Chinese leaves [2]": {"test_system": "Chinese leaves", "test": "Container experiment with Chinese leaves: growth (fresh-matter yield)", "type": "in vivo, Chinese leaves \"Kasumi\"", "procedure": "as §1"}, "[3]": {"settings": "S 8 mg, lignosulfonate 2 mg, mixture M 10 mg"}, "[4]": {"settings": "S 80 mg, lignosulfonate 20 mg, mixture M 100 mg"}, "[5]": {"settings": "plant batch 1, S 8 mg, lignosulfonate 2 mg, mixture M 10 mg per pot/week"}, "[6]": {"settings": "plant batch 1, S 80 mg, lignosulfonate 20 mg, mixture M 100 mg per pot/week"}, "[7]": {"settings": "plant batch 2, S 8 mg, lignosulfonate 2 mg, mixture M 10 mg per pot/week"}, "[8]": {"settings": "plant batch 2, S 80 mg, lignosulfonate 20 mg, mixture M 100 mg per pot/week"}},
  "data": [
    {"smiles": "S1SSSSSSS1", "note": "[Sulfur, sulfur]", "values": [
      {"measurement": "Iron content in ppm", "setting": "Chinese leaves [1]; [3]", "result": 140, "unit": "ppm"},
      {"measurement": "Manganese content in ppm", "setting": "Chinese leaves [1]; [3]", "result": 66, "unit": "ppm"},
      {"measurement": "Iron content in ppm", "setting": "Chinese leaves [1]; [4]", "result": 174, "unit": "ppm"},
      {"measurement": "Manganese content in ppm", "setting": "Chinese leaves [1]; [4]", "result": 67, "unit": "ppm"},
      {"measurement": "Fe content in leaves", "setting": "Chinese leaves [1]; [3]", "result": 140, "unit": "ppm in DM"},
      {"measurement": "Iron content in % of untreated", "setting": "Chinese leaves [1]; [3]", "result": "127 % of untreated"},
      {"measurement": "K content in leaves", "setting": "Chinese leaves [1]; [3]", "result": 5.23, "unit": "% in DM"},
      {"measurement": "Manganese content in % of untreated", "setting": "Chinese leaves [1]; [3]", "result": "101 % of untreated"},
      {"measurement": "Mg content in leaves", "setting": "Chinese leaves [1]; [3]", "result": 0.24, "unit": "% in DM"},
      {"measurement": "Mn content in leaves", "setting": "Chinese leaves [1]; [3]", "result": 66, "unit": "ppm in DM"},
      {"measurement": "N content in leaves", "setting": "Chinese leaves [1]; [3]", "result": 3.57, "unit": "% in DM"},
      {"measurement": "P content in leaves", "setting": "Chinese leaves [1]; [3]", "result": 0.46, "unit": "% in DM"},
      {"measurement": "Fe content in leaves", "setting": "Chinese leaves [1]; [4]", "result": 174, "unit": "ppm in DM"},
      {"measurement": "Iron content in % of untreated", "setting": "Chinese leaves [1]; [4]", "result": "158 % of untreated"},
      {"measurement": "K content in leaves", "setting": "Chinese leaves [1]; [4]", "result": 5.57, "unit": "% in DM"},
      {"measurement": "Manganese content in % of untreated", "setting": "Chinese leaves [1]; [4]", "result": "103 % of untreated"},
      {"measurement": "Mg content in leaves", "setting": "Chinese leaves [1]; [4]", "result": 0.25, "unit": "% in DM"},
      {"measurement": "Mn content in leaves", "setting": "Chinese leaves [1]; [4]", "result": 67, "unit": "ppm in DM"},
      {"measurement": "N content in leaves", "setting": "Chinese leaves [1]; [4]", "result": 3.86, "unit": "% in DM"},
      {"measurement": "P content in leaves", "setting": "Chinese leaves [1]; [4]", "result": 0.50, "unit": "% in DM"},
      {"measurement": "Effect on growth (in words)", "setting": "Chinese leaves [2]; increasing additions, in particular in the first batch of plants", "result": "no growth-promoting effect"},
      {"measurement": "Fresh-matter yield", "setting": "Chinese leaves [2]; [5]", "result": 106, "unit": "g/container"},
      {"measurement": "Fresh-matter yield % of untreated", "setting": "Chinese leaves [2]; [5]", "result": "97 % of untreated"},
      {"measurement": "Fresh-matter yield", "setting": "Chinese leaves [2]; [6]", "result": 108, "unit": "g/container"},
      {"measurement": "Fresh-matter yield % of untreated", "setting": "Chinese leaves [2]; [6]", "result": "99 % of untreated"},
      {"measurement": "Fresh-matter yield", "setting": "Chinese leaves [2]; [7]", "result": 67, "unit": "g/container"},
      {"measurement": "Fresh-matter yield % of untreated", "setting": "Chinese leaves [2]; [7]", "result": "96 % of untreated"},
      {"measurement": "Fresh-matter yield", "setting": "Chinese leaves [2]; [8]", "result": 68, "unit": "g/container"},
      {"measurement": "Fresh-matter yield % of untreated", "setting": "Chinese leaves [2]; [8]", "result": "97 % of untreated"}
    ]}
  ]
}
